Experimental data reported in BindingDB's records for doi:10.1021/bi2002967 (University of Colorado Denver, 2011).

Target: K562 (Homo sapiens)
Assay: Cell assay using human leukemia cell line K562.

Structure (SMILES) | IC50 [µM]
Cc1c(COc2c(F)cc(F)cc2F)c2c(O)c(N=CCCN)cc(O)c2n1C [Indolequinone, compd 4] | > 10
Cc1c(COc2c(F)cc(F)cc2F)c2c(n1C)C(=O)C=C(N(C)CCCN(C)C)C2=O [Indolequinone, compd 7] | > 10
Cc1c(COc2c(F)cc(F)cc2F)c2c(O)cc(N=CCCCN)c(O)c2n1C [Indolequinone, compd 3] | > 10
Cc1c(COc2c(F)cc(F)cc2F)c2c(O)c(N=CCCCN)cc(O)c2n1C [Indolequinone, compd 2] | > 10
Cc1c(COc2ccccc2)c2c(O)c(N=CCCN(C)C)cc(O)c2n1C [Indolequinone, compd 8] | > 10
Cc1c(COc2c(F)cc(F)cc2F)c2c(O)cc(N=CCCN(C)C)c(O)c2n1C [Indolequinone, compd 6] | > 10
Cc1c(CO)c2c(O)c(N=CCCN(C)C)cc(O)c2n1C [Indolequinone, compd 9] | > 10
Cc1c(COc2ccc([N+](=O)[O-])cc2)c2c(O)c(N=CCCCN)cc(O)c2n1C [Indolequinone, compd 1] | > 10
Cc1c(COc2c(F)cc(F)cc2F)c2c(O)c(N=CCCN(C)C)cc(O)c2n1C [Indolequinone, compd 5] | > 10
